# Data: patent US20250376490A1, “C[…]-DERIVED PEPTIDE-NUCLEIC ACID HYBRID MOLECULE FOR TREATING INFECTION CAUSED BY MUTATED CORONAVIRUS” (priority 2022, published 2025)
# What was measured:
# pseudotype SARS-COV-2 = assay type: cell-based
# RBD-hACE2 binding = RBD-hACE2 binding (Severe acute respiratory syndrome coronavirus 2, UniProt P0DTC2); details: 3 μM concentration
# SARS-COV-2 RBD = SARS-COV-2 RBD (Severe acute respiratory syndrome coronavirus 2, UniProt P0DTC2); details: co-incubation with P05DHu and AM 122 antibodies
# Protocol: Specifically, after thermal denaturation and rapid cooling, they were co-incubated with 5 nM RBD beads (final volume: 100 μL) with gentle rotation for 1 hour at room temperature. Beads were washed three times, and resuspended in 100 μL of 1× PBSMT for analysis with CytoFLEX S (Beckman Coulter). The competitive RBD-binding fraction was calculated as the ratio of the competitive mean fluorescence intensity to the uncompetitive (free-binding) mean fluorescence intensity.
Substance,infection rate with pseudotype SARS-COV-2 (percentage of GFP-expressing infected cells) (pseudotype SARS-COV-2),inhibition of RBD-hACE2 interaction (RBD-hACE2 binding),neutralizing efficiency compared to other RBD binders (pseudotype SARS-COV-2),RBD binding competition between R7-02 and antibodies (SARS-COV-2 RBD)
LGKGDFR [LGKGDFR peptide],12.6%,11.69%,–,–
R7-02 (LGKGDFRK),1.9%,–,significantly higher or comparable,insignificant
